Measurements as given in patent US8846684B2 (priority 2011, dated 2014).

Test system: WEEV replicon
Assay: microbe, parasite or virus in culture
Type: cell-based, Western equine encephalitis virus
Settings: Western equine encephalitis virus; for activity at 50 µM: read-out: 50 μM (% control) Luc

O=C(NC1Cc2ccccc2C1)C1CCN(C(=O)c2cc3ccccc3n2Cc2ccc(Cl)cc2)CC1 [CCG 205471, 1-(1-(4-chlorobenzyl)-1H-indole-2-carbonyl)-N-(2,3-dihydro-1H-inden-2-yl)piperidine-4-carboxamide]
activity at 50 µM: 60.9%

O=C(c1cc2ccccc2n1Cc1ccc(Cl)cc1)N1CCC(C(=O)N2CCCC2c2ccccc2)CC1 (stereo not shown) [CCG 205473, (1-(4-chlorobenzyl)-1H-indol-2-yl)(4-(2-phenylpyrrolidine-1-carbonyl)piperidin-1-yl)methanone]
activity at 50 µM: 33.9%

O=C(c1cc2ccccc2n1Cc1ccc(Cl)cc1)N1CCC(C(=O)N2CCC(c3ccccc3)C2)CC1 (stereo not shown) [CCG 205474, (1-(4-chlorobenzyl)-1H-indol-2-yl)(4-(3-phenylpyrrolidine-1-carbonyl)piperidin-1-yl)methanone]
activity at 50 µM: 57.1%

O=C(c1cc2ccccc2n1Cc1ccc(Cl)cc1)N1CCC(CN2CCCCC2)CC1 [CCG 205476, (1-(4-chlorobenzyl)-1H-indol-2-yl)(4-(piperidin-1-ylmethyl)piperidin-1-yl)methanone]
IC50: 9.8 µM | activity at 50 µM: 6.5%

COc1ccc(Cn2c(C(=O)N3CCC(C(=O)N(C)Cc4ccccc4)CC3)cc3ccccc32)cc1 [CCG 205477, N-benzyl-1-(1-(4-methoxybenzyl)-1H-indole-2-carbonyl)-N-methylpiperidine-4-carboxamide]
IC50: 16.5 µM | activity at 50 µM: 33.3%

O=C(NCc1ccccc1)C1CCCN(C(=O)c2cc3ccccc3n2Cc2ccc(Cl)cc2)C1 (stereo not shown) [CCG 205483, N-benzyl-1-(1-(4-chlorobenzyl)-1H-indole-2-carbonyl)piperidine-3-carboxamide]
IC50: 30.6 µM | activity at 50 µM: 44.1%

CN(Cc1ccccc1)C(=O)C1CCN(C(=O)c2cc3ccccc3n2Cc2ccc([N+](=O)[O-])cc2)CC1 [CCG 205484, N-benzyl-N-methyl-1-(1-(4-nitrobenzyl)-1H-indole-2-carbonyl)piperidine-4-carboxamide]
IC50: 41.9 µM | activity at 50 µM: 54%

O=C(c1cc2ccccc2n1Cc1ccc(Cl)cc1)N1CCN(Cc2ccccc2)CC1 [CCG 206327, (4-benzylpiperazin-1-yl)(1-(4-chlorobenzyl)-1H-indol-2-yl)methanone]
IC50: 11.5 µM | activity at 50 µM: 33.3%

CC(NC(=O)C1CCN(C(=O)c2cc3ccccc3n2Cc2ccc(Cl)cc2)CC1)c1ccncc1 (stereo not shown) [CCG 206329, 1-(1-(4-chlorobenzyl)-1H-indole-2-carbonyl)-N-(1-(pyridin-4-yl)ethyl)piperidine-4-carboxamide]
IC50: 2.39 µM | activity at 50 µM: 12.7%

CN(Cc1ccccc1)C(=O)C1CCN(C(=O)c2cc3ccccc3n2Cc2ccc(C#N)cc2)CC1 [CCG 206330, N-benzyl-1-(1-(4-cyanobenzyl)-1H-indole-2-carbonyl)-N-methylpiperidine-4-carboxamide]
IC50: 79.3 µM | activity at 50 µM: 45.2%

COCCn1c(C(=O)N2CCC(C(=O)N(C)Cc3ccccc3)CC2)cc2ccccc21 [CCG 206331, N-benzyl-1-(1-(2-methoxyethyl)-1H-indole-2-carbonyl)-N-methylpiperidine-4-carboxamide]
activity at 50 µM: 74.5%

CC(C)Cn1c(C(=O)N2CCC(C(=O)N(C)Cc3ccccc3)CC2)cc2ccccc21 [CCG 206332, N-benzyl-1-(1-isobutyl-1H-indole-2-carbonyl)-N-methylpiperidine-4-carboxamide]
IC50: 27.9 µM | activity at 50 µM: 1.7%

CC(=O)n1c(C(=O)N2CCC(C(=O)N(C)Cc3ccccc3)CC2)cc2ccccc21 [CCG 206333, 1-(1-acetyl-1H-indole-2-carbonyl)-N-benzyl-N-methylpiperidine-4-carboxamide]
activity at 50 µM: 58.5%

O=C(Nc1ccccc1)C1CCN(C(=O)c2cc3ccccc3n2Cc2ccc(Cl)cc2)CC1 [CCG 206334, 1-(1-(4-chlorobenzyl)-1H-indole-2-carbonyl)-N-phenylpiperidine-4-carboxamide]
activity at 50 µM: 77.3%

O=C(NCCc1ccncc1)C1CCN(C(=O)c2cccn2Cc2ccc(Cl)cc2)CC1 [CCG 206381, 1-(1-(4-chlorobenzyl)-1H-pyrrole-2-carbonyl)-N-(2-(pyridin-4-yl)ethyl)piperidine-4-carboxamide]
IC50: 0.68 µM | activity at 50 µM: 9.9%

O=C(NCC1Cc2ccccc2C1)C1CCN(C(=O)c2cc3ccccc3n2Cc2ccc(Cl)cc2)CC1 [CCG 206382, 1-(1-(4-chlorobenzyl)-1H-indole-2-carbonyl)-N-((2,3-dihydro-1H-inden-2-yl)methyl)piperidine-4-carboxamide]
IC50: 0.53 µM | activity at 50 µM: 25.8%

COc1cccc(CCNC(=O)C2CCN(C(=O)c3cc4ccccc4n3Cc3ccc(Cl)cc3)CC2)c1 [CCG 206395, 1-(1-(4-chlorobenzyl)-1H-indole-2-carbonyl)-N-(3-methoxyphenethyl)piperidine-4-carboxamide]
IC50: 11.7 µM | activity at 50 µM: 38.4%

O=C(NCCc1ccc(F)cc1)C1CCN(C(=O)c2cc3ccccc3n2Cc2ccc(Cl)cc2)CC1 [CCG 206396, 1-(1-(4-chlorobenzyl)-1H-indole-2-carbonyl)-N-(4-fluorophenethyl)piperidine-4-carboxamide]
IC50: 10.6 µM | activity at 50 µM: 34.9%

O=C(NCCc1ccccc1)C1CCN(C(=O)c2cc3ccccc3n2Cc2ccc(Cl)cc2)CC1 [CCG 206397, 1-(1-(4-chlorobenzyl)-1H-indole-2-carbonyl)-N-phenethylpiperidine-4-carboxamide]
IC50: 15.2 µM | activity at 50 µM: 40.2%

COc1ccc(CCNC(=O)C2CCN(C(=O)c3cc4ccccc4n3Cc3ccc(Cl)cc3)CC2)cc1 [CCG 206398, 1-(1-(4-chlorobenzyl)-1H-indole-2-carbonyl)-N-(4-methoxyphenethyl)piperidine-4-carboxamide]
IC50: 7.1 µM | activity at 50 µM: 12.9%

O=C(NCc1cccc(F)c1)C1CCN(C(=O)c2cc3ccccc3n2Cc2ccc(Cl)cc2)CC1 [CCG 206399, 1-(1-(4-chlorobenzyl)-1H-indole-2-carbonyl)-N-(3-fluorobenzyl)piperidine-4-carboxamide]
activity at 50 µM: 50.4%

O=C(NCCc1ccc(Cl)cc1)C1CCN(C(=O)c2cc3ccccc3n2Cc2ccc(Cl)cc2)CC1 [CCG 206400, 1-(1-(4-chlorobenzyl)-1H-indole-2-carbonyl)-N-(4-chlorophenethyl)piperidine-4-carboxamide]
IC50: 7.45 µM | activity at 50 µM: 28.6%

C#CCn1c(C(=O)N2CCC(C(=O)N(C)Cc3ccccc3)CC2)cc2ccccc21 [CCG 206401, N-benzyl-N-methyl-1-(1-(prop-2-yn-1-yl)-1H-indole-2-carbonyl)piperidine-4-carboxamide]
activity at 50 µM: 57.4%

Cc1cccc2cc(C(=O)N3CCC(C(=O)NCc4ccccc4)CC3)n(Cc3ccc(Cl)cc3)c12 [CCG 206447, N-benzyl-1-(1-(4-chlorobenzyl)-7-methyl-1H-indole-2-carbonyl)piperidine-4-carboxamide]
IC50: 60.7 µM | activity at 50 µM: 46.8%

CC(C)c1ccc(CCNC(=O)C2CCN(C(=O)c3cc4ccccc4n3Cc3ccc(Cl)cc3)CC2)cc1 [CCG 206461, 1-(1-(4-chlorobenzyl)-1H-indole-2-carbonyl)-N-(4-isopropylphenethyl)piperidine-4-carboxamide]
IC50: 2.9 µM | activity at 50 µM: 32.6%

O=C(c1cc2ccccc2n1Cc1ccc(Cl)cc1)N1CCC2C(=O)N(Cc3ccccc3)CC2C1 (stereo not shown) [CCG 206485, 2-benzyl-5-(1-(4-chlorobenzyl)-1H-indole-2-carbonyl)octahydro-1H-pyrrolo[3,4-c]pyridin-1-one]
IC50: 17.1 µM | activity at 50 µM: 39.4%

Cc1ccc(CCNCC2CCN(C(=O)c3cc4ccccc4n3Cc3ccc(F)cc3)CC2)cc1 [CCG 206486, (1-(4-fluorobenzyl)-1H-indol-2-yl)(4-(((4-methylphenethyl)amino)methyl)piperidin-1-yl)methanone]
IC50: 6.1 µM | activity at 50 µM: 0%

C[C@@H](NCC1CCN(C(=O)c2cc3ccccc3n2Cc2ccc(F)cc2)CC1)c1ccccc1 [CCG 206499, (R)-(1-(4-fluorobenzyl)-1H-indol-2-yl)(4-(((1-phenylethyl)amino)methyl)piperidin-1-yl)methanone]
activity at 50 µM: 0%

O=C(c1cc2ccccc2n1Cc1ccc(F)cc1)N1CCC(CNCc2ccccc2)CC1 [CCG 206500, (4-((benzylamino)methyl)piperidin-1-yl)(1-(4-fluorobenzyl)-1H-indol-2-yl)methanone]
IC50: 6.5 µM | activity at 50 µM: 0%

C[C@H](NCC1CCN(C(=O)c2cc3ccccc3n2Cc2ccc(F)cc2)CC1)c1ccccc1 [CCG 206501, (S)-(1-(4-fluorobenzyl)-1H-indol-2-yl)(4-(((1-phenylethyl)amino)methyl)piperidin-1-yl)methanone]
IC50: 8.9 µM | activity at 50 µM: 0%

O=C(c1cc2ccccc2n1Cc1ccc(F)cc1)N1CCC(CN2CCOCC2)CC1 [CCG 206502, (1-(4-fluorobenzyl)-1H-indol-2-yl)(4-(morpholinomethyl)piperidin-1-yl)methanone]
IC50: 40.6 µM | activity at 50 µM: 39.1%

CN(Cc1ccccc1)CC1CCN(C(=O)c2cc3ccccc3n2Cc2ccc(F)cc2)CC1 [CCG 206503, (4-((benzyl(methyl)amino)methyl)piperidin-1-yl)(1-(4-fluorobenzyl)-1H-indol-2-yl)methanone]
IC50: 25.1 µM | activity at 50 µM: 28.2%

CC(NC(=O)C1CCN(C(=O)c2cc3ccccc3n2Cc2ccc(Cl)cc2)CC1)C1Cc2ccccc2C1 (stereo not shown) [CCG 206549, 1-(1-(4-chlorobenzyl)-1H-indole-2-carbonyl)-N-(1-(2,3-dihydro-1H-inden-2-yl)ethyl)piperidine-4-carboxamide]
IC50: 1.7 µM | activity at 50 µM: 36.9%

O=C(NCC1CCc2ccccc21)C1CCN(C(=O)c2cc3ccccc3n2Cc2ccc(Cl)cc2)CC1 (stereo not shown) [CCG 206550, 1-(1-(4-chlorobenzyl)-1H-indole-2-carbonyl)-N-((2,3-dihydro-1H-inden-1-yl)methyl)piperidine-4-carboxamide]
IC50: 7.1 µM | activity at 50 µM: 47.4%

O=C(NCCc1ccncc1)C1CCN(C(=O)c2nc3ccccc3n2Cc2ccc(Cl)cc2)CC1 [CCG 206565, 1-(1-(4-chlorobenzyl)-1H-benzo[d]imidazole-2-carbonyl)-N-(2-(pyridin-4-yl)ethyl)piperidine-4-carboxamide]
IC50: 4.07 µM | activity at 50 µM: 12%
